In patent US8653087B2, “Pyrido [5, 4-D] pyrimidines as cell proliferation inhibitors” (Boehringer Ingelheim International GmbH, priority 2008, dated 2014):

What follows are compounds tested against B-Raf (V600E)-kinase (Homo sapiens (Human), UniProt P15056, V600E) (assay: Kinase test B-RAF (V600E)). Conditions: B-RAF (V600E) kinase test, 250 μM ATP.
Format: biochemical
Method: Kinase Test B-RAF (V600E)
In a dilution series 10 μL of test substance solution are placed in a multiwell plate. The dilution series is selected so that generally a range of concentrations of 2 μM to 0.119 nM or 0.017 nM is covered. If necessary the initial concentration of 2 μM is changed to 50 μM, 10 μM or 0.4 μM or 0.2857 μM and further dilution is carried out accordingly. The final concentration of DMSO is 5%. 10 μL of the B-Raf (V600E)-kinase solution are pipetted in (containing 0.5 ng B-Raf (V600E)-kinase in 20 mM Tris-HCl pH 7.5, 0.1 mM EDTA, 0.1 mM EGTA, 0.286 mM sodium orthovanadate, 10% glycerol, 1 mg/mL bovine serum albumin, 1 mM dithiothreitol) and the mixture is incubated for 24 h at RT under with shaking. The kinase reaction is started by the addition of 20 μL ATP solution [final concentration: 250 μM ATP, 30 mM Tris-HCl pH 7.5, 0.02% Brij, 0.2 mM sodium orthovanadate, 10 mM magnesium acetate, 0.1 mM EGTA, phosphatase cocktail (Sigma, # P2850, dilution recommended by the manufacturer), 0.1 mM EGTA] and 10 μL MEK1 solution [containing 50 ng biotinylated MEK1 (prepared from purified MEK1 according to standard procedure, e.g. with EZ-Link Sulpho-NHS-LC-Biotin reagent, Pierce, #21335) and carried out for 60 min at RT with constant shaking. The reaction is stopped by the addition of 12 μL of a 100 mM EDTA solution and incubation is continued for a further 5 min. 55 μL of the reaction solution are transferred into a streptavidin-coated plate (e.g. Streptawell HighBond, Roche, #11989685001) and shaken gently for 1 h at RT, in order to bind biotinylated MEK1 to the plate. After elimination of the liquid the plate is washed five times with 200 μL of 1×PBS and 100 μL solution of primary antibody plus europium-labelled secondary antibody [Anti Phospho-MEK (Ser217/221), Cell Signaling, #9121 and Eu-N1 labeled goat-anti-rabbit antibody, Perkin Elmer, # AD0105], the primary antibody is diluted 1:2000 and the secondary antibody is diluted to 0.4-0.5 μg/mL in Delfia Assay Buffer (Perkin Elmer, #1244-111). After 1 h shaking at RT the solution is poured away and washed five times with 200 μL Delfia Wash Buffer (Perkin Elmer, #4010-0010/#1244-114). After the addition of 200 μL Enhancement Solution (Perkin Elmer, #4001-0010/#1244-105) the mixture is shaken for 10 min at RT and then measured in a Wallac Victor using the program “Delfia Time Resolved Fluorescence (Europium)”. IC50 values are obtained from these dosage-activity curves using a software program (GraphPadPrizm).

Chain of B-Raf (V600E)-kinase (P15056 whole entry V600E): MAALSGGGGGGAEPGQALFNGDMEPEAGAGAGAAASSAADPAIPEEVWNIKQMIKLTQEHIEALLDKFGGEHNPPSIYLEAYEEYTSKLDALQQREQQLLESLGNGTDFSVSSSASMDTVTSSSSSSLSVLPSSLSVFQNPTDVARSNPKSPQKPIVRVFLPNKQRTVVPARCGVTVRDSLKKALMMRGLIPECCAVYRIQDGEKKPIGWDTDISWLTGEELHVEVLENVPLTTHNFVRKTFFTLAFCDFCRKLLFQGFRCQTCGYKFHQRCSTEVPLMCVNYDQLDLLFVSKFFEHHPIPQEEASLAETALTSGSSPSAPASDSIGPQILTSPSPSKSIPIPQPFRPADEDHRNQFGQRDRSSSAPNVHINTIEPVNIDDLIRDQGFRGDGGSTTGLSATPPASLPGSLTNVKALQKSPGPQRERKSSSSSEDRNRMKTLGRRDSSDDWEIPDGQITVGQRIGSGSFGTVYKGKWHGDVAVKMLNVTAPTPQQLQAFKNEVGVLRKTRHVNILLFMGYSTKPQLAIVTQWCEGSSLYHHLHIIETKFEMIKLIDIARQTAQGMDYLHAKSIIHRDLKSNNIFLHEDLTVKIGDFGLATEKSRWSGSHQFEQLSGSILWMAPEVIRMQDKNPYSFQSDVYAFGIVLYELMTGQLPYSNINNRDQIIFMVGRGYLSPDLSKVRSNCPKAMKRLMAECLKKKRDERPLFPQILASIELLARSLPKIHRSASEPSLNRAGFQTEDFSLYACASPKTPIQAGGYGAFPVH

| Compound | IC50 |
| --- | --- |
| CC(C)(C)c1cc(NC(=O)c2ccc(F)c(Nc3ncnc4cnc(N5CCCCCC5)nc34)c2)no1 [III-85] | 7 nM |
| COc1ccc(C(=O)Nc2ccc(OC)c(C(F)(F)F)c2)cc1Nc1ncnc2cnc(N3CCCCC3)nc12 [III-23] | 7 nM |
| Cc1ccc(C(=O)Nc2cc(N3CCN(C)CC3)c(F)c(C(F)(F)F)c2)cc1Nc1ncnc2cnc(N3CCOCC3)nc12 [III-503] | 1 nM |
| Cc1ccc(C(=O)NCc2cccc(C(C)(C)C)c2)cc1Nc1ncnc2cnc(N3CCCC3)nc12 [III-278] | 88 nM |
| Cc1ccc(C(=O)NCC2CCOC2)cc1Nc1ncnc2cnc(N3CCN(C)CC3)nc12 (centres unmarked) [III-187] | > 2000 nM |
| Cc1ccc(C(=O)NCC2CCOC2)cc1Nc1ncnc2cnc(N3CCCCC3)nc12 (centres unmarked) [III-212] | > 15000 nM |
| CC1=Nc2ccc(NC(=O)c3ccc(C)c(Nc4ncnc5cnc(N6CCC(CN7CCCC7)CC6)nc45)c3)cc2C1(C)C [III-601] | 6 nM |
| Cc1ccc(NC(=O)c2cccc(C(F)(F)F)c2)cc1Nc1ncnc2c(N)nc(NN3CCN(C)CC3)nc12 [II-3] | 50 nM |
| Cc1ccc(C(=O)Nc2ccc(C#N)c(C(F)(F)F)c2)cc1Nc1ncnc2c(N)nc(N3CCN(C)CC3)nc12 [I-71] | 7 nM |
| CC(C)(C)c1cc(NC(=O)c2ccc(F)c(Nc3ncnc4cnc(NC5CCOC5)nc34)c2)[nH]n1 (centres unmarked) [III-392] | 3 nM |
| COc1ccc(NC(=O)c2ccc(C)c(N(C)c3ncnc4cnc(N5CCOCC5)nc34)c2)cc1C(F)(F)F [III-584] | 18 nM |
| Cc1ccc(NS(=O)(=O)CCC(C)C)cc1Nc1ncnc2cnc(N3CCN(C)CC3)nc12 [IV-54] | 10000 nM |
| Cc1ccc(C(=O)Nc2ccc3c(c2)OC(F)(F)C(F)(F)O3)cc1Nc1ncnc2cnc(N3CCN(CCN(C)C)CC3)nc12 [III-607] | 1 nM |
| Cc1ccc(C(=O)Nc2ccc(C(F)(F)F)cc2)cc1Nc1ncnc2c(N)nc(N3CCN(CC4CCN(C)CC4)CC3)nc12 [I-8] | 2 nM |
| Cc1ccc(NS(=O)(=O)C2CC2)cc1Nc1ncnc2cnc(N3CCN(C)CC3)nc12 [IV-63] | 595 nM |
| Cc1ccc(NC(=O)c2cccc(C(F)(F)F)c2)cc1Nc1ncnc2c(N)nc(N3CC(C)NC(C)C3)nc12 (centres unmarked) [II-15] | 40 nM |
| Cc1ccc(C(=O)NCc2ccc(C(C)(C)C)cc2)cc1Nc1ncnc2cnc(N3CCN(C)CC3)nc12 [III-226] | 101 nM |
| Cc1ccc(C(=O)Nc2ccccc2)cc1Nc1ncnc2cnc(N3CCCCC3)nc12 [III-253] | 269 nM |
| COc1ccc(NC(=O)c2ccc(F)c(Nc3ncnc4cnc(N5CCN(CC6CC6)CC5)nc34)c2)cc1C(F)(F)F [III-404] | 6 nM |

| Compound | IC50 |
| --- | --- |
| Cc1ccc(C(=O)NC2CC2)cc1Nc1ncnc2cnc(N3CCCN(C)CC3)nc12 [III-185] | > 15000 nM |
| Cc1ccc(C(=O)NCc2cccc(C(C)(C)C)c2)cc1Nc1ncnc2cnc(N3CCCN(C)CC3)nc12 [III-336] | 140 nM |
| Cc1cn(-c2cc(NC(=O)c3ccc(C)c(Nc4ncnc5c(N)nc(N6CCN(C)CC6)nc45)c3)cc(C(F)(F)F)c2)cn1 [I-75] | 54 nM |
| Cc1ccc(C(=O)Nc2cccc(S(=O)(=O)N(C)C)c2)cc1Nc1ncnc2cnc(N3CCCCC3)nc12 [III-334] | 10 nM |
| COc1ccc(C(=O)Nc2cc(C(C)(C)C)on2)cc1Nc1ncnc2cnc(N3CCN(C)CC3)nc12 [III-95] | 2 nM |
| Cc1ccc(C(=O)Nc2cc(C(C)(C)C)on2)cc1Nc1ncnc2cnc(N3CCN(C)CC3)nc12 [III-504] | 2 nM |
| COc1ccc(C(=O)Nc2ccc(OC)c(C(F)(F)F)c2)cc1Nc1ncnc2cnc(NCCCN3CCOCC3)nc12 [III-24] | 5 nM |
| Cc1ccc(C(=O)Nc2cc(C(C)(C)C)on2)cc1Nc1ncnc2cnc(N3CCN(C4CC4)CC3)nc12 [III-493] | 5 nM |
| Cc1ccc(C(=O)NCc2ccc(C(C)(C)C)cc2)cc1Nc1ncnc2cnc(N3CCOCC3)nc12 [III-302] | 115 nM |
| CCN1CCN(c2ncc3ncnc(Nc4cc(C(=O)Nc5cc(C(C)(C)C)on5)ccc4F)c3n2)CC1 [III-398] | 1 nM |
| Cc1ccc(C(=O)NC2CCCCC2)cc1Nc1ncnc2cnc(N3CC[C@@H](F)C3)nc12 [III-208] | > 2000 nM |
| COc1ccc(NC(=O)c2ccc(C)c(Nc3ncnc4cnc(N5CCC(N6CCCC6)CC5)nc34)c2)cc1C(F)(F)F [III-560] | 7 nM |
| CC(C)(C)c1cc(NC(=O)c2ccc(Cl)c(Nc3ncnc4cnc(N5CCCCC5)nc34)c2)no1 [III-73] | 4 nM |
| COc1ccc(NC(=O)c2ccc(Cl)c(Nc3ncnc4cnc(NCCCN5CCOCC5)nc34)c2)cc1C(F)(F)F [III-11] | 4 nM |
| Cc1ccc(C(=O)Nc2ccc3c(c2)C(C)(C)C(=O)N3CCN2CCCC2)cc1Nc1ncnc2cnc(N3CCN(C)CC3)nc12 [III-186] | 26 nM |
| CCN1CCN(c2cc(NC(=O)c3ccc(C)c(Nc4ncnc5c(N)nc(N(C)C)nc45)c3)cc(C(F)(F)F)c2)CC1 [I-79] | 19 nM |
| COc1ccc(C(=O)Nc2cc(C(C)(C)C)on2)cc1Nc1ncnc2cnc(N(C)CCN3CCCC3)nc12 [III-97] | 4 nM |
| CC(C)(C)c1cc(NC(=O)c2ccc(C(F)(F)F)c(Nc3ncnc4cnc(N5CCCCC5)nc34)c2)no1 [III-61] | 2240 nM |

Second part, the compound after the results:

| IC50 | Compound |
| --- | --- |
| 3 nM | Cc1ccc(C(=O)Nc2ccc(F)c(C(F)(F)F)c2)cc1Nc1ncnc2cnc(N3CC[C@H](F)C3)nc12 [III-286] |
| 15 nM | COc1ccc(C(F)(F)F)cc1NC(=O)c1ccc(C)c(Nc2ncnc3cnc(N(C)CCN(C)C)nc23)c1 [III-234] |
| 4 nM | Cc1cn(-c2cc(NC(=O)c3ccc(C)c(Nc4ncnc5cnc(N6CC[C@H](F)C6)nc45)c3)cc(C(F)(F)F)c2)cn1 [III-454] |
| 1 nM | COc1ncc2ncnc(Nc3cc(C(=O)Nc4cc(CN5CCCC5)cc(C(F)(F)F)c4)ccc3C)c2n1 [III-572] |
| 29 nM | Cc1ccc(C(=O)NCc2ccc(C(F)(F)F)cc2)cc1Nc1ncnc2cnc(N3CCCCC3)nc12 [III-246] |
| 13 nM | COCCN1CCN(c2ncc3ncnc(Nc4cc(C(=O)Nc5cc(C(F)(F)F)ccc5C#N)ccc4C)c3n2)CC1 [III-531] |
| < 1 nM | Cc1ccc(C(=O)Nc2cccc(OC(F)(F)F)c2)cc1Nc1ncnc2cnc(N3CCN(C)CC3)nc12 [III-301] |
| 4 nM | COc1ccc(NC(=O)c2ccc(C)c(Nc3ncnc4cnc(N5C[C@@H](C)O[C@@H](C)C5)nc34)c2)cc1C(F)(F)F [III-550] |
| 41 nM | Cc1ccc(C(=O)NCc2ccc(C(F)(F)F)cc2)cc1Nc1ncnc2cnc(N3CCN(C)CC3)nc12 [III-227] |
| 1 nM | Cc1cn(-c2cc(NC(=O)c3ccc(C)c(Nc4ncnc5cnc(NC6CCOC6)nc45)c3)cc(C(F)(F)F)c2)cn1 (centres unmarked) [III-507] |
| < 1 nM | Cc1ccc(C(=O)Nc2cc(C(F)(F)F)ccn2)cc1Nc1ncnc2cnc(NCC(C)C)nc12 [III-519] |
| 7 nM | COc1ccc(NC(=O)c2ccc(C)c(Nc3ncnc4cnc(N5CCN(C6CC6)CC5)nc34)c2)cc1C(F)(F)F [III-433] |
| < 1 nM | Cc1ccc(C(=O)Nc2cc(OCCN(C)C)cc(C(F)(F)F)c2)cc1Nc1ncnc2cnc(N3CCOCC3)nc12 [III-149] |
| 12 nM | COc1c(CNC(C)C)cc(C(F)(F)F)cc1NC(=O)c1ccc(C)c(Nc2ncnc3cnc(N4CC[C@H](F)C4)nc23)c1 [III-542] |
| 2 nM | COc1ncc2ncnc(Nc3cc(C(=O)Nc4ccc(OC)c(C(F)(F)F)c4)ccc3C)c2n1 [III-569] |
| 4 nM | COCCN1CCN(c2ncc3ncnc(Nc4cc(C(=O)Nc5cc(OC)cc(C(F)(F)F)c5)ccc4C)c3n2)CC1 [III-535] |
| < 1 nM | Cc1ccc(C(=O)Nc2cc(N(C)CCN(C)C)cc(C(F)(F)F)c2)cc1Nc1ncnc2cnc(NCc3cccnc3)nc12 [III-168] |
| 2 nM | Cc1ccc(C(=O)Nc2cc(C(C)(C)C)on2)cc1Nc1ncnc2cnc(NCC3CCOC3)nc12 (centres unmarked) [III-359] |
| < 1 nM | Cc1ccc(C(=O)Nc2cc(C(C)(C)C)on2)cc1Nc1ncnc2cnc(NC3CCOC3)nc12 (centres unmarked) [III-357] |
| 3 nM | Cc1ccc(C(=O)Nc2cc(C(C)(C)C)nn2C)cc1Nc1ncnc2cnc(NCC(C)C)nc12 [III-499] |
| 1 nM | Cc1ccc(C(=O)Nc2cccc(C(F)(F)F)c2)cc1Nc1ncnc2cnc(N3CC[C@H](F)C3)nc12 [III-287] |
| < 1 nM | CCN1CCN(c2cc(NC(=O)c3ccc(C)c(Nc4ncnc5cnc(NC6CCOC6)nc45)c3)cc(C(F)(F)F)c2)CC1 (centres unmarked) [III-351] |
